Results as given in patent US20230000842A1, “METHODS OF TREATING CARTILAGE DISORDERS THROUGH INHIBITION OF CLK AND DYRK” (SAMUMED, LLC, priority 2019, published 2023).

Experiments:
[1] = tested on: MMP-3 levels in supernatant of chondrocytes stimulated with IL1-β; assay: Chondrocyte protection assay compound screening (MMP-3 LANCE Ultra); assay type: cell-based, human; settings: Homo sapiens, Chondrocyte, IL1-β 10 ng/mL overnight, 11-point curves from 3 μM to 0.05 nM; for Emax: read-out: Maximum % Inhibition
Procedure, shortened: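 Primary human chondrocytes (passage 2–5) in differentiation medium were stimulated with 10 ng/mL IL1-β for an overnight incubation at 37 °C. MMP-3 in 1:7-diluted supernatant was read by TR-FRET immunoassay against a standard curve, normalised to IL1-β-stimulated wells; EC50 and maximum % inhibition came from nonlinear regression.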

[2] = tested on: primary human mesenchymal stem cells (hMSCs); assay: Chondrogenesis screening using primary human mesenchymal stem cells; assay type: cell-based; settings: Homo sapiens, Mesenchymal stem cells, hMSC chondrogenesis; for EC50: concentration required to induce 50% levels of chondrogenesis with TGF-β3 as positive control, read-out: Conc (nM) of 50% TGF-β3 activity; for Emax: maximum activity relative to TGF-β3 (10 ng/mL) positive control, read-out: Max. Activity as % TGF-β3 activity
Procedure, shortened: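 Primary hMSCs at passage 3–6 were treated across compound concentrations, with TGF-β3 as positive control. Chondrogenic nodule area per well was normalized to 3 DMSO wells on the same plate (fold over DMSO, 2–3 replicates). EC50, maximum activity and the dose reaching it were derived.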

[3] = biological target: CLK3 kinase (Homo sapiens, UniProt P49761); assay: CLK3 kinase activity assay (Z-lyte FRET); assay type: biochemical; settings: Z-lyte Ser/Thr 18 peptide, 156 μM ATP, 1 h at room temperature;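 further: kinase activity read as coumarin/fluorescein emission ratio by FRET, unphosphorylated peptide as 0% and phosphorylated peptide as 100% control, values from non-linear regression of dose-response curves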
Method: This is a non-radioactive assay using fluorescence resonance energy transfer (FRET) between coumarin and fluorescein to detect kinase activity which is represented as a ratio of coumarin emission/fluorescein emission.
The mixture was allowed to incubate with the representative compounds for one hour at room temperature. All reactions were performed in duplicate. Unphosphorylated (“0% Control”) and phosphorylated (“100% control”) forms of Ser/Thr 18 served as control reactions. Additionally, an 11-point dose-response curve of Staurosporine (1 μM top) was run to serve as a positive compound control.
After incubation, Development Reagent A was diluted in Development Buffer then added to the reaction and allowed to further incubate for one hour at room temperature.
Dose-response curves were generated and inhibitory concentration (IC50) values were calculated using non-linear regression curve fit in the Dotmatics' Studies Software (Bishops Stortford, UK).

[4] = biological target: CLK2 kinase (Homo sapiens, UniProt P49760); assay: CLK2 kinase activity assay (Z-lyte FRET); assay type: biochemical; settings: Z-lyte Ser/Thr 6 peptide, 60 μM ATP, 1 h at room temperature;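 further: FRET read-out as coumarin to fluorescein emission ratio, unphosphorylated peptide as 0% and phosphorylated peptide as 100% controls, duplicate reactions, non-linear regression fit of dose-response curves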
[5] = tested on: Wnt pathway activity (SW480 colon carcinoma cells stably expressing the Sp5-Luc reporter); assay: Wnt pathway activity screening assay (Sp5-Luc reporter gene assay); settings: Homo sapiens, SW480, Table 4; SW480 cells stably expressing Sp5-Luc reporter, 10-point dose-response from 10 μM, 36 to 48 hours

Chain of CLK3 kinase (P49761 whole entry): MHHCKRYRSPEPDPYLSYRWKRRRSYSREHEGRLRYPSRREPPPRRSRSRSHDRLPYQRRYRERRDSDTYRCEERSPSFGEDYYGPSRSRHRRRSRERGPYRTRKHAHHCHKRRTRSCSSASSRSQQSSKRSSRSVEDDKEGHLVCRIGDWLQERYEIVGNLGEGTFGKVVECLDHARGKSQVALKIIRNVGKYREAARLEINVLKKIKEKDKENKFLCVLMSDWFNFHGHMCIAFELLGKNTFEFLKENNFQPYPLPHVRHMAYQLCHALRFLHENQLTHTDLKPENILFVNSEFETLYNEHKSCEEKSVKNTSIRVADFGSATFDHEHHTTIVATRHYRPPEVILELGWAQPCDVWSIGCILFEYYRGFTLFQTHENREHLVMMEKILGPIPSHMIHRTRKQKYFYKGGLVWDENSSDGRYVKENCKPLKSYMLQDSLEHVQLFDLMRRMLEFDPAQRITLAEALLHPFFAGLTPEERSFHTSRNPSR
Chain of CLK2 kinase (P49760 whole entry): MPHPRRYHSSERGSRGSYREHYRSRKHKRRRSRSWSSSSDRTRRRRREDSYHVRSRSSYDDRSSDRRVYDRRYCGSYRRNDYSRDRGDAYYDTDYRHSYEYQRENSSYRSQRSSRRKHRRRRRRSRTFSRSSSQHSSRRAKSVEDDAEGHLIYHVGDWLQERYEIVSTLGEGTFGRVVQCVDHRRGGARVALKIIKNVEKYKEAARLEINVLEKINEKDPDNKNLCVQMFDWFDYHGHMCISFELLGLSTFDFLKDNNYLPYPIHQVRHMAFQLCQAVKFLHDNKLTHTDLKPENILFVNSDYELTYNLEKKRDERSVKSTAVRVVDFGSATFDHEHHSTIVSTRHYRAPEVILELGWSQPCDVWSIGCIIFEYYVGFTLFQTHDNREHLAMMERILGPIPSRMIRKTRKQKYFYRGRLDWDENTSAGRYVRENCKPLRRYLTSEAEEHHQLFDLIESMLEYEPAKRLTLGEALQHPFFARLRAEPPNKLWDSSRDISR

SMILES	EC50 [1]	Emax [1]	EC50 [2]	Emax [2]	EC50 [3]	EC50 [4]	EC50 [5]
Cc1cn(-c2cncc3[nH]c(-c4n[nH]c5ccc(-c6cncc(NC(=O)C(C)(C)C)c6)nc45)nc23)cn1 [compound 222]	1150 nM	64.9%	100 nM	150%	263 nM	3 nM	> 10000 nM
CN(C)Cc1cncc(-c2cnc3[nH]nc(-c4nc5c(-c6cccs6)cncc5[nH]4)c3c2)c1 [compound 260]	≥ 3000 nM		30 nM	146%	128 nM	1 nM	48 nM
Cc1ccc(-c2nccc3[nH]c(-c4n[nH]c5ccc(-c6cncc(N)c6)nc45)nc23)s1 [compound 275]	≥ 3000 nM	58.4%	10 nM	72.6%	20 nM	1 nM	45.5 nM
CC(C)Nc1cncc(-c2ccc3[nH]nc(-c4nc5c(-c6cc(F)cc(NCCN(C)C)c6)cncc5[nH]4)c3n2)c1 [compound 284]	≥ 3000 nM	32.9%	300 nM	96.8%	25 nM	1 nM	1660 nM
CC(C)CC(=O)Nc1cncc(-c2cc3c(-c4nc5c(-c6cc(F)cc(OCCN7CCCC7)c6)cncc5[nH]4)n[nH]c3cn2)c1 [compound 298]	≥ 3000 nM	23.2%		20.3%	13 nM	1 nM	> 10000 nM
CCNCc1cncc(-c2cc3c(-c4cc5c(-c6cccnc6)cncc5[nH]4)n[nH]c3cn2)c1 [compound 367]	≥ 3000 nM	75.7%	10 nM	67.6%	214 nM	2 nM	3730 nM
O=C(Nc1cncc(-c2cnc3[nH]nc(-c4cc5c(-c6ccncc6)cncc5[nH]4)c3c2)c1)C1CCC1 [compound 394]	17.9 nM	90.4%		43.5%	69 nM	3 nM	> 10000 nM
O=C(CC1CCNCC1)Nc1cncc(-c2ccc3[nH]nc(-c4cc5c(N6CCCCC6)nccc5[nH]4)c3n2)c1 [compound 462]	1470 nM	99.9%		21.8%	48 nM	2 nM	> 10000 nM
CN1CCN(c2cncc3[nH]c(-c4n[nH]c5ccc(-c6cncc(CNCc7ccccc7)c6)cc45)cc23)CC1 [compound 490]	329 nM	80.2%		101%	142 nM	3 nM	3290 nM
CCNCc1cncc(-c2cnc3[nH]nc(-c4cc5c(-c6cc(F)cc(CNS(C)(=O)=O)c6)cncc5[nH]4)c3c2)c1 [compound 533]	≥ 3000 nM	40.8%		42.8%	51 nM	2 nM	> 10000 nM
O=C(Nc1cc2cc(-c3cncc(NC4CCNC[C@@H]4F)n3)ccc2cn1)C1CC1 (stereo partly shown) [compound 603]	≥ 3000 nM	55.5%	2700 nM	68%	11 nM	1 nM	9.5 nM
O=C1CCc2cccc(c2)-c2cncc3[nH]c(nc23)-c2n[nH]c3ccc(cc23)-c2cncc(c2)N1 [compound 619]	≥ 3000 nM	71.5%	50 nM	225%	29 nM	2 nM	51.8 nM
O=C1COc2cccc(c2)-c2cncc3[nH]c(nc23)-c2n[nH]c3ccc(cc23)-c2cncc(c2)N1 [compound 620]	37.4 nM	37.1%	100 nM	185%	16 nM	3 nM	86.8 nM
CN1CCCn2cc(nn2)-c2nccc3[nH]c(nc23)-c2n[nH]c3ccc(cc23)-c2cncc(c2)C1 [compound 621]	≥ 3780 nM	46.5%	10 nM	181%	26 nM	3 nM	338 nM
O=C1CCc2cccc(c2)-c2cncc(c2)NC(=O)c2n[nH]c3ccc(cc23)-c2cncc(c2)CN1 [compound 622]	10 nM	83.8%	30 nM	69.4%	36 nM	5 nM	> 10000 nM
CN1CCN(c2cc(Nc3ncc4c(-c5ccc6ncccc6c5)c[nH]c4n3)ccn2)CC1 [compound 623]	≥ 9980 nM	89.5%	30 nM	73.4%	10 nM	2 nM	284 nM
